Among the test systems are MOLT-4 leukemia; ACHN renal; SNB-75 CNS; SNB-19 CNS; HCT-116 colon; EKVX NSCLC; CAKI-1 renal; A549 NSCLC; SK-OV-3 ovarian; HS 578T breast.
Holding throughout (experiment): NCI anticancer screen, dose series, 48 h

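Grown in 96-well plates, cells were treated for 48 hours with each compound at five concentrations. Insufficient inhibition: endpoint recorded as highest concentration tested. GI50: concentration for 50% inhibition of growth. TGI is the concentration that stops growth completely.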

On to `N#CC1=C(N)Oc2c(ccc3ccccc23)C1c1ccccc1Cl` (stereo unspecified), for which the GI50 was 0.447 µM in the assay with MOLT-4 leukemia; 0.718 µM in the assay with ACHN renal; 0.163 µM with SNB-75 CNS; 0.59 µM in the assay on SNB-19 CNS; 0.275 µM in the assay with HCT-116 colon; 0.652 µM with EKVX NSCLC. The GI50 in the assay on CAKI-1 renal is 0.167 µM; in the assay on A549 NSCLC, 0.476 µM; in the assay with SK-OV-3 ovarian, 0.628 µM; in the assay with HS 578T breast, 0.226 µM. The TGI in the assay on MOLT-4 leukemia came out at 17.8 µM; in the assay on ACHN renal, 19.6 µM; with SNB-75 CNS it was 2.95 µM; with SNB-19 CNS, 23.1 µM; in the assay on HCT-116 colon it was 5.41 µM; with EKVX NSCLC, 22.2 µM. The TGI is 20.9 µM in the assay with CAKI-1 renal, 26.7 µM in the assay on A549 NSCLC, 43.3 µM in the assay on SK-OV-3 ovarian and 2.94 µM with HS 578T breast.
Regarding `C[As](C)SCC(COC(=O)c1ccccc1)OC(=O)c1ccccc1` (stereo unspecified), the GI50 in the assay on MOLT-4 leukemia is 0.013 µM; with ACHN renal, 0.0369 µM; in the assay on SNB-75 CNS, 0.968 µM; in the assay with SNB-19 CNS it was 3.63 µM; in the assay on HCT-116 colon, 0.0292 µM; in the assay with EKVX NSCLC, 1.86 µM. In addition, the GI50 with CAKI-1 renal is below 0.0181 µM; in the assay with A549 NSCLC, 1.45 µM; in the assay on SK-OV-3 ovarian, 3.16 µM; in the assay on HS 578T breast it was 0.627 µM. In addition, the TGI in the assay on MOLT-4 leukemia was found to be 0.154 µM; in the assay on ACHN renal, 0.285 µM; in the assay on SNB-75 CNS, 12.7 µM; in the assay with SNB-19 CNS, 19.6 µM; with HCT-116 colon, 0.434 µM; with EKVX NSCLC, 10.7 µM. Also, the TGI with CAKI-1 renal amounted to 0.0499 µM; in the assay with A549 NSCLC, 11.3 µM; in the assay on SK-OV-3 ovarian it was 18.1 µM; with HS 578T breast, 4.45 µM.
Consider `Nc1cc2[nH]c(=O)c3cc(Cl)ccc3c2cc1Cl`, for which the TGI is above 100 µM with MOLT-4 leukemia; 22.4 µM in the assay with ACHN renal; 61.8 µM in the assay with SNB-75 CNS; 37.2 µM in the assay with SNB-19 CNS; 68.8 µM with HCT-116 colon; above 100 µM with EKVX NSCLC. In addition, the TGI in the assay with CAKI-1 renal is 40.8 µM; with A549 NSCLC, 44.7 µM; in the assay with SK-OV-3 ovarian, 15.8 µM; in the assay on HS 578T breast, above 100 µM.
Regarding `C/C=C\C(C)=C/C(C)C(=O)CC(O)CC1CC(=O)NC(=O)C1` (stereo unspecified), the TGI in the assay on MOLT-4 leukemia is above 28.2 µM; in the assay with ACHN renal it was above 100 µM; in the assay on SNB-75 CNS it was 68.2 µM; with SNB-19 CNS, above 90.6 µM; with HCT-116 colon, above 100 µM; in the assay on EKVX NSCLC, above 100 µM. Besides, the TGI is above 67.5 µM in the assay with CAKI-1 renal, above 100 µM with A549 NSCLC, above 100 µM with SK-OV-3 ovarian and 62.5 µM in the assay on HS 578T breast.
As to `CCCCc1ccc(C(N)=O)nc1`, the GI50 with MOLT-4 leukemia was above 100 µM; in the assay with ACHN renal, above 100 µM; with SNB-75 CNS it was above 100 µM; in the assay with SNB-19 CNS, above 100 µM; in the assay with HCT-116 colon it was above 100 µM; in the assay with EKVX NSCLC, 48.9 µM. Besides, the GI50 is above 100 µM in the assay with CAKI-1 renal, above 100 µM in the assay on A549 NSCLC, above 100 µM with SK-OV-3 ovarian and 20 µM in the assay with HS 578T breast. Moreover, the TGI in the assay with MOLT-4 leukemia, in the assay on ACHN renal, with SNB-75 CNS, with SNB-19 CNS, in the assay with HCT-116 colon and in the assay on EKVX NSCLC was above 100 µM throughout. The TGI in the assay with CAKI-1 renal, with A549 NSCLC, in the assay with SK-OV-3 ovarian and in the assay with HS 578T breast was above 100 µM in each case.
For `O=C(CN1C(=O)c2ccccc2C1=O)NC1(C(=O)O)CCCC1`, the TGI in the assay on MOLT-4 leukemia, in the assay with ACHN renal, in the assay with SNB-75 CNS, in the assay with SNB-19 CNS, in the assay on HCT-116 colon and in the assay on EKVX NSCLC was above 100 µM each time. For the same compound, the TGI with CAKI-1 renal, with A549 NSCLC, with SK-OV-3 ovarian and with HS 578T breast was above 100 µM in each case.
As for `O=C(NC(c1ccccc1)C(O)C(=O)OCc1ccc2c(c1)C(=O)c1ccccc1C2=O)c1ccccc1` (stereo unspecified), the TGI with MOLT-4 leukemia was above 100 µM; in the assay with ACHN renal it was 43.7 µM; with SNB-75 CNS it was 24.6 µM; in the assay with SNB-19 CNS, 18.3 µM; with HCT-116 colon, 39.1 µM; with EKVX NSCLC, above 83.1 µM. Further, the TGI in the assay with CAKI-1 renal is 20.1 µM; with A549 NSCLC it was 54 µM; with SK-OV-3 ovarian it was 15.3 µM; in the assay with HS 578T breast, above 100 µM.
As for `CCCCCCCCCCCCOC1C(C(COC2OC(C(O)CO)C3OC(C)(C)OC23)OC(=O)Nc2ccc([N+](=O)[O-])cc2)OC2OC(C)(C)OC21` (stereo unspecified), the GI50 is 3.4 µM with ACHN renal; 3.64 µM in the assay with SNB-75 CNS; 9.43 µM in the assay on SNB-19 CNS; 1.77 µM in the assay with HCT-116 colon; 2.34 µM in the assay with EKVX NSCLC; 2.55 µM in the assay on CAKI-1 renal. For the same compound, the GI50 in the assay on A549 NSCLC was 3.36 µM; in the assay on SK-OV-3 ovarian, 15.9 µM; with HS 578T breast, 1.88 µM. For the same compound, the TGI with ACHN renal was 10.6 µM; in the assay with SNB-75 CNS, 16.1 µM; with SNB-19 CNS it was 21.8 µM; in the assay with HCT-116 colon, 3.45 µM; in the assay on EKVX NSCLC, 6.21 µM; in the assay with CAKI-1 renal it was 7.28 µM. Further, the TGI in the assay on A549 NSCLC was determined as 10.7 µM; in the assay with SK-OV-3 ovarian, 30.8 µM; with HS 578T breast, 3.74 µM.
As to `CNCc1ccc(C)c(NC(=O)c2ccc(Nc3nc(-c4ccccc4)c4ccccc4n3)cc2)c1`, the GI50 was 2.1 µM with MOLT-4 leukemia; 2.01 µM in the assay on ACHN renal; 0.842 µM in the assay on SNB-75 CNS; 1.68 µM in the assay with HCT-116 colon; 1.64 µM with EKVX NSCLC; 1.87 µM in the assay on CAKI-1 renal. Besides, the results for the GI50 in the assay with A549 NSCLC, in the assay with SK-OV-3 ovarian and in the assay with HS 578T breast were 1.78 µM, 2.18 µM and 1.76 µM, respectively. Besides, the TGI in the assay on MOLT-4 leukemia turned out to be 4.76 µM; in the assay with ACHN renal it was 3.82 µM; in the assay on SNB-75 CNS, 2.32 µM; in the assay on HCT-116 colon, 3.1 µM; in the assay on EKVX NSCLC it was 3.35 µM; in the assay with CAKI-1 renal it was 3.57 µM. The values for the TGI in the assay with A549 NSCLC, in the assay on SK-OV-3 ovarian and in the assay with HS 578T breast were 3.4 µM, 4.08 µM and 4.17 µM, respectively.

Values taken from PubChem BioAssay (NCI).
